Patent US8614327B2 (Vertex Pharmaceuticals Incorporated, priority 2004, dated 2013)

Target: T1, ΔF508-CFTR (Homo sapiens, UniProt P13569, DEL508-508)
T1 construct: expressed in transfected cells
Experiment: Membrane potential optical (FRET/VIPR) assay, identification of potentiator compounds
Format: cell-based
Conditions: Table 3, assay not given; for % Activity: relative efficacy
Outline: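 Double-addition potentiator screen: compound delivered in gluconate-substituted Cl^--free medium, membrane potential followed via CC2-DMPE/DiSBAC2(3) FRET on VIPR. Cells were ΔF508-CFTR-expressing NIH3T3 mouse fibroblasts, held 2 h at 37° C. then 24 h at 27° C. before assay.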

T1 sequence (P13569 with tags, fused parts or gaps DEL508-508): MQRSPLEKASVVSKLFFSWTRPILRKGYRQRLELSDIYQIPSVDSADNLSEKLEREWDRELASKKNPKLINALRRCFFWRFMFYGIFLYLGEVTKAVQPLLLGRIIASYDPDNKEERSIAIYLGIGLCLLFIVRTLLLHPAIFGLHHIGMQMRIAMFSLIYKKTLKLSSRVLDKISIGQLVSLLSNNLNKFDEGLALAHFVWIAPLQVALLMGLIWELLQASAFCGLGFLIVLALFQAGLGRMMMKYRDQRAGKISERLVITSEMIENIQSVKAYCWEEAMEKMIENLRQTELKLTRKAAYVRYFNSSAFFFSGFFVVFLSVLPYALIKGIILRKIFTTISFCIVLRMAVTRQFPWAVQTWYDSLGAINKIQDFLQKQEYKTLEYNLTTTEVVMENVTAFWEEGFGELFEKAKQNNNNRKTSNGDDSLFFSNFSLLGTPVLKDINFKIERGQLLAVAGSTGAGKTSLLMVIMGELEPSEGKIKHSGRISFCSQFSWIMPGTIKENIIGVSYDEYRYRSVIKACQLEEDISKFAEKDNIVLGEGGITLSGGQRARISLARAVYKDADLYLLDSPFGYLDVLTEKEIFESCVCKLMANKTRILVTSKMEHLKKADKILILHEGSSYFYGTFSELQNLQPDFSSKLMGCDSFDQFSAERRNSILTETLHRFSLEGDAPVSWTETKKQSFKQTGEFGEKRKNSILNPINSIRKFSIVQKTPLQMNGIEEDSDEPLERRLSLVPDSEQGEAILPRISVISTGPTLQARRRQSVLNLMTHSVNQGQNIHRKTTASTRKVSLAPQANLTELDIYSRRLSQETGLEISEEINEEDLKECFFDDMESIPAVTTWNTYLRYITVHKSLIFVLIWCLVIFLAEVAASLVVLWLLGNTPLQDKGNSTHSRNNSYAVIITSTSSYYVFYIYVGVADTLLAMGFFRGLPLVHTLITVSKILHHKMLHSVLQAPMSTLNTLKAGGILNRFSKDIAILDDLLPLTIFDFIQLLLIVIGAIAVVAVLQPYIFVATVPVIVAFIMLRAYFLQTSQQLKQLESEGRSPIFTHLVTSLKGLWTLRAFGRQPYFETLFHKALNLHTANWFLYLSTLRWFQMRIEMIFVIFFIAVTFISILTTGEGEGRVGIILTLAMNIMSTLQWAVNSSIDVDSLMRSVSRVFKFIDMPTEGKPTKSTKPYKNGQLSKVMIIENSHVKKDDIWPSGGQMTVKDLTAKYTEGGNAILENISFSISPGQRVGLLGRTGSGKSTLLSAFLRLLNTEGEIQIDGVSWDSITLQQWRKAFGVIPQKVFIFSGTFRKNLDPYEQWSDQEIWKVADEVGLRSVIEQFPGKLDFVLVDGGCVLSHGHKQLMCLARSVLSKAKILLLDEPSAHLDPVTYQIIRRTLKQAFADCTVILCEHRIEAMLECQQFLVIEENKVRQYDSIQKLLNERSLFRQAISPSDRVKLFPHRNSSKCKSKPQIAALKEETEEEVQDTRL

Row | Compound | EC50 | % Activity
1 | COc1c(N)cc(C(C)(C)C)cc1NC(=O)c1c[nH]c2ccccc2c1=O [Compound 55, N-(3-amino-2-methoxy-5-tert-butyl-phenyl)-4-oxo-1H-quinoline-3-carboxamide] | 25 to 60 µM | + (<25%)
2 | O=C(Nc1cccnc1)c1c[nH]c2ccccc2c1=O [Compound 168, 4-oxo-N-(3-pyridyl)-1H-quinoline-3-carboxamide] | 25 to 60 µM | + (<25%)
3 | O=C(Nc1ccccc1-c1ccc2[nH]ccc2c1)c1c[nH]c2ccccc2c1=O [Compound 118, N-[2-(1H-indol-5-yl)phenyl]-4-oxo-1H-quinoline-3-carboxamide] |  | ++ (between 25% to 100%)
4 | O=C(Nc1ccncc1)c1c[nH]c2ccccc2c1=O [Compound 53, 4-oxo-N-(4-pyridyl)-1H-quinoline-3-carboxamide] | 25 to 60 µM | + (<25%)
5 | COC(=O)[C@@H]1C[C@@H](OC(C)(C)C)CN1c1ccc(NC(=O)c2c[nH]c3ccccc3c2=O)c(C(F)(F)F)c1 [Compound 550, (2S,4R)-methyl 4-tert-butoxy-1-(4-(4-oxo-1,4-dihydroquinoline-3-carboxamido)-3-(trifluoromethyl)phenyl)pyrrolidine-2-carboxylate] | < 10 µM | ++ (between 25% to 100%)
6 | CC(C)(CNC(=O)OCC1CCOC1)c1ccc(NC(=O)c2c[nH]c3ccccc3c2=O)cc1 (stereo not drawn) [Compound 396, [2-methyl-2-[4-[(4-oxo-1H-quinolin-3-yl)carbonylamino]phenyl]-propyl]aminoformic acid tetrahydrofuran-3-ylmethyl ester] | 10 to 25 µM | ++ (between 25% to 100%)
7 | O=C(Nc1ccccc1-c1nc(-c2ccc(Cl)cc2)no1)c1c[nH]c2ccccc2c1=O [Compound 102, N-[2-[3-(4-chlorophenyl)-1,2,4-oxadiazol-5-yl]phenyl]-4-oxo-1H-quinoline-3-carboxamide] | 10 to 25 µM | ++ (between 25% to 100%)
8 | COc1ccc(NC(=O)c2c[nH]c3ccccc3c2=O)cc1N [Compound 378, N-(3-amino-4-methoxy-phenyl)-4-oxo-1H-quinoline-3-carboxamide] | 10 to 25 µM | ++ (between 25% to 100%)
9 | CC(C)n1cc(C(=O)Nc2ccccc2)c(=O)c2ccccc21 [Compound 29, 1-isopropyl-4-oxo-N-phenyl-1H-quinoline-3-carboxamide] | 10 to 25 µM | ++ (between 25% to 100%)
10 | O=C(Nc1ccc2c(c1)OCO2)c1c[nH]c2ccccc2c1=O [Compound 437, N-benzo[1,3]dioxol-5-yl-4-oxo-1H-quinoline-3-carboxamide] | 25 to 60 µM | + (<25%)
11 | CC(C)(C)c1ccc(NC(=O)c2c[nH]c3ccccc3c2=O)cc1S(N)(=O)=O [Compound 268, 4-oxo-N-(3-sulfamoyl-4-tert-butyl-phenyl)-1H-quinoline-3-carboxamide] | 10 to 25 µM | ++ (between 25% to 100%)
12 | CC(C)(C)c1cc(C(C)(C)C)c(NC(=O)c2c[nH]c3cc(F)c(F)cc3c2=O)cc1O [Compound 672, 6,7-difluoro-N-(5-hydroxy-2,4-ditert-butyl-phenyl)-4-oxo-1H-quinoline-3-carboxamide] | < 10 µM | ++ (between 25% to 100%)
13 | CC(C)(C)c1cc(C(F)(F)F)c(NC(=O)c2c[nH]c3cccc(O)c3c2=O)cc1O [Compound 487, 5-hydroxy-N-[5-hydroxy-4-tert-butyl-2-(trifluoromethyl)phenyl]-4-oxo-1H-quinoline-3-carboxamide] | < 10 µM | ++ (between 25% to 100%)
14 | O=C(Nc1ccc(C(F)(F)F)cc1N1CCCCC1)c1c[nH]c2ccccc2c1=O [Compound 514, 4-oxo-N-[2-(1-piperidyl)-4-(trifluoromethyl)phenyl]-1H-quinoline-3-carboxamide] | < 10 µM | ++ (between 25% to 100%)

Continued, values first:

Row | EC50 | % Activity | Compound
15 | < 10 µM | +++ (>100%) | Cc1cc(N2CCCC2)ccc1NC(=O)c1c[nH]c2ccccc2c1=O [Compound 615, N-(2-methyl-4-pyrrolidin-1-yl-phenyl)-4-oxo-1H-quinoline-3-carboxamide]
16 | < 10 µM | ++ (between 25% to 100%) | Cc1ccccc1Oc1ccccc1NC(=O)c1c[nH]c2ccccc2c1=O [Compound 20, N-[2-(2-methylphenoxy)phenyl]-4-oxo-1H-quinoline-3-carboxamide]
17 | < 10 µM | ++ (between 25% to 100%) | CC1(C)CCN(c2ccc(NC(=O)c3c[nH]c4ccccc4c3=O)c(C(F)(F)F)c2)C1 [Compound 536, N-[4-(3,3-dimethylpyrrolidin-1-yl)-2-(trifluoromethyl)phenyl]-4-oxo-1H-quinoline-3-carboxamide]
18 | < 10 µM | + (<25%) | Cc1cccc2c(=O)c(C(=O)Nc3cc4[nH]ccc4cc3C(C)(C)C)c[nH]c12 [Compound 644, 8-methyl-4-oxo-N-(5-tert-butyl-1H-indol-6-yl)-1H-quinoline-3-carboxamide]
19 | < 10 µM | ++ (between 25% to 100%) | CC(C)(C)c1cc(C(F)(F)F)c(NC(=O)c2c[nH]c3ccc(F)cc3c2=O)cc1O [Compound 509, 6-fluoro-N-[5-hydroxy-4-tert-butyl-2-(trifluoromethyl)phenyl]-4-oxo-1H-quinoline-3-carboxamide]
20 | < 10 µM | ++ (between 25% to 100%) | N#CCc1c[nH]c2cc(NC(=O)c3c[nH]c4ccccc4c3=O)ccc12 [Compound 96, N-[3-(cyanomethyl)-1H-indol-6-yl]-4-oxo-1H-quinoline-3-carboxamide]
21 | < 10 µM | ++ (between 25% to 100%) | C[C@H]1CCCN1c1ccc(NC(=O)c2c[nH]c3cccc(C(F)(F)F)c3c2=O)c(C(F)(F)F)c1 [Compound 669, (S)-N-(4-(2-methylpyrrolidin-1-yl)-2-(trifluoromethyl)phenyl)-4-oxo-5-(trifluoromethyl)-1,4-dihydroquinoline-3-carboxamide]
22 | < 10 µM | ++ (between 25% to 100%) | CC(C)(C)c1cc(C(C)(C)C)c(NC(=O)c2c[nH]c3ccccc3c2=O)c(O)c1O [Compound 220, N-(2,3-dihydroxy-4,6-ditert-butyl-phenyl)-4-oxo-1H-quinoline-3-carboxamide]
23 | < 10 µM | ++ (between 25% to 100%) | Cc1ccc2[nH]cc(C(=O)Nc3cc(O)c(C4(C)CCCCC4)cc3F)c(=O)c2c1 [Compound 624, N-[2-fluoro-5-hydroxy-4-(1-methylcyclohexyl)-phenyl]-6-methyl-4-oxo-1H-quinoline-3-carboxamide]
24 | < 10 µM | ++ (between 25% to 100%) | CC(C)(C)c1ccc(N)cc1NC(=O)c1c[nH]c2ccccc2c1=O [Compound 260, N-(5-Amino-2-tert-butyl-phenyl)-4-oxo-1H-quinoline-3-carboxamide]
25 | < 10 µM | +++ (>100%) | O=C(Nc1ccccc1-c1ccc(Oc2ccccc2)cc1)c1c[nH]c2ccccc2c1=O [Compound 410, 4-oxo-N-[2-(4-phenoxyphenyl)phenyl]-1H-quinoline-3-carboxamide]
26 | < 10 µM | ++ (between 25% to 100%) | O=C(Nc1ccccc1-c1ccccc1Oc1ccccc1)c1c[nH]c2ccccc2c1=O [Compound 247, 4-oxo-N-[2-(2-phenoxyphenyl)phenyl]-1H-quinoline-3-carboxamide]
27 | < 10 µM | ++ (between 25% to 100%) | Cc1ccccc1-c1ccccc1NC(=O)c1c[nH]c2ccccc2c1=O [Compound 199, N-[2-(o-tolyl)phenyl]-4-oxo-1H-quinoline-3-carboxamide]
28 | < 10 µM | ++ (between 25% to 100%) | Cc1ccc2[nH]cc(C(=O)Nc3cc(O)c(C(C)(C)C)cc3C(C)(C)C)c(=O)c2c1 [Compound 688, N-(5-hydroxy-2,4-ditert-butyl-phenyl)-6-methyl-4-oxo-1H-quinoline-3-carboxamide]
29 | < 10 µM | ++ (between 25% to 100%) | CCCCc1ccccc1NC(=O)c1c[nH]c2ccccc2c1=O [Compound 336, N-(2-butylphenyl)-4-oxo-1H-quinoline-3-carboxamide]
30 | < 10 µM | ++ (between 25% to 100%) | CCOc1ccc(-c2ccccc2NC(=O)c2c[nH]c3ccccc3c2=O)cc1 [Compound 348, N-[2-(4-ethoxyphenyl)phenyl]-4-oxo-1H-quinoline-3-carboxamide]
31 | < 10 µM | ++ (between 25% to 100%) | Cc1cc(C(C)(C)C)c(O)cc1NC(=O)c1c[nH]c2cccc(O)c2c1=O [Compound 588, 5-hydroxy-N-(5-hydroxy-2-methyl-4-tert-butyl-phenyl)-4-oxo-1H-quinoline-3-carboxamide]
32 | < 10 µM | ++ (between 25% to 100%) | CCc1ccc(Cl)c(CC)c1NC(=O)c1c[nH]c2ccccc2c1=O [Compound 91, N-(3-chloro-2,6-diethyl-phenyl)-4-oxo-1H-quinoline-3-carboxamide]
33 | < 10 µM | ++ (between 25% to 100%) | O=C(Nc1cc(O)cc(C(F)(F)F)c1)c1c[nH]c2cccc(O)c2c1=O [Compound 599, 5-hydroxy-N-[3-hydroxy-5-(trifluoromethyl)phenyl]-4-oxo-1H-quinoline-3-carboxamide]
34 | < 10 µM | ++ (between 25% to 100%) | CN(C(=O)c1c[nH]c2ccccc2c1=O)c1cc(O)c(C(C)(C)C)cc1C(C)(C)C [Compound 337, N-(5-hydroxy-2,4-ditert-butyl-phenyl)-N-methyl-4-oxo-1H-quinoline-3-carboxamide]
35 | < 10 µM | ++ (between 25% to 100%) | O=C(Nc1ccccc1SC(F)(F)F)c1c[nH]c2ccccc2c1=O [Compound 371, 4-oxo-N-[2-(trifluoromethylsulfanyl)phenyl]-1H-quinoline-3-carboxamide]
